This assay concerns the target T1, ABCG2 (Homo sapiens, UniProt Q9UNQ0).
T1 sequence (Q9UNQ0 1-655): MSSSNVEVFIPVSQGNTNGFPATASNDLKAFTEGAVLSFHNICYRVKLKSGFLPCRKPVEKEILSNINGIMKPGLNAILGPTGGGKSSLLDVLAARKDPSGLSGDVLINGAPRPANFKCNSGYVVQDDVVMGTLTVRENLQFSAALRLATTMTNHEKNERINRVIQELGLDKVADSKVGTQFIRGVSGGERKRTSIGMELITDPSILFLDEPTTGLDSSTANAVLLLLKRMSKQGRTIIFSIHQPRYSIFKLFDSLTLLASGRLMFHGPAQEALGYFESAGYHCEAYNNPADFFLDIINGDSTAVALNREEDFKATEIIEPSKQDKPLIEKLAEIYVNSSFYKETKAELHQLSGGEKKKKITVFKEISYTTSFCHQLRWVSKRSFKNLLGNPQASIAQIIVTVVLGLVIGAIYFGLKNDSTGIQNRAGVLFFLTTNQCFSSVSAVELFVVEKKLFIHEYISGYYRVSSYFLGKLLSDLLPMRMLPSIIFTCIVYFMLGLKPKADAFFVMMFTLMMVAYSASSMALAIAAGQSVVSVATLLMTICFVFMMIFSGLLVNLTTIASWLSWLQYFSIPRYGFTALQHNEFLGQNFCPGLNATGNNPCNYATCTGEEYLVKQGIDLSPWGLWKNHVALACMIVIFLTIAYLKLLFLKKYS
The experiment in a line: Vi-sensitive ABCG2 ATPase stimulation in High Five insect cell membranes. The class given is biochemical.

The values below come from article PMC6718313 (European journal of medicinal chemistry, 2019).

Structures are written as SMILES.

The EC50 is the concentration needed to bring the measured effect to its halfway point. Lower therefore signals an effect from little substance. In turn, `COc1ccc(C(=O)c2c[nH]c3ccc(OC)cc23)cc1` [compound 8, (5-Methoxy-1H-indol-3-yl)(4-methoxyphenyl)methanone] had an EC50 of 750 nM.

`COc1ccc(C(=O)c2ccc3[nH]cc(C(=O)c4ccc(OC)cc4)c3c2OC)cc1` [compound 2, (4-methoxy-1H-indole-3,5-diyl)bis((4-methoxyphenyl)methanone)] registered a 50% effective concentration (EC50) of 210 nM.
